Measured values from patent publication US20230255906A1, “Targeting Serpin B9 in Cancer” (The Brigham and Women`s Hospital, Inc., priority 2020, published 2023).
Residues, ends and D or L forms follow the SMILES beside them. *: point of attachment. Cbz = O=C(OCc1ccccc1)*; CH2Cl = ClC*

Legend:
[1] = test system: MBP-Sb9; assay: Thermal stability assay (TSA) fragment screen; type: binding; conditions: 5000 to 21 μM
Description: FIG. 4A. The upper panels show the TSA results of the MBP-Sb9 protein incubated with 5 mM 3,4-dihydroxybenzoic acid (3,4-DHBA; left) and 3-oxo-1-indancarboxylic acid (right), or with 2.5% DMSO. The thermal shifts of the compounds 3,4-dihydroxybenzoic acid and 3-oxo-1-indancarboxylic acid are shown in a thick dark line against a baseline control shown as a thin gray line. The bottom panels show the TSA results of the MBP-Sb9 protein incubated with 3,4-dihydroxybenzoic acid (left) or 3-oxo-1-indancarboxylic acid (right) at different concentrations, including 5000, 1667, 556, 185, 62, and 21 μM. The concentration-response curves are plotted in a black/gray color scale (higher intensity is higher concentration) and the straight line plots represent the compound background signal.
TSA is an analytic tool to estimate the overall stability of a protein by monitoring the shift in its melting temperature upon changing the buffer conditions or titrating various ligands. As the protein unfolds with increasing temperature in a thermal cycler (CFX384 Touch Real-Time PCR Detection System), SYPRO orange dye binds to the exposed hydrophobic core and fluoresces, leading to the signal that is measured in comparison to temperature to produce a melt curve. […] Dye was added at 2×strength, and the readings were performed from 25° C. to 95° C. at 0.5° C. intervals. […]

[2] = biological target: T1, MBP-Sb9 (Homo sapiens, UniProt P50453); assay: Surface plasmon resonance (SPR) binding; conditions: 25° C., 1:1 Langmuir model
T1 construct: made in house
T1 sequence (P50453 whole entry): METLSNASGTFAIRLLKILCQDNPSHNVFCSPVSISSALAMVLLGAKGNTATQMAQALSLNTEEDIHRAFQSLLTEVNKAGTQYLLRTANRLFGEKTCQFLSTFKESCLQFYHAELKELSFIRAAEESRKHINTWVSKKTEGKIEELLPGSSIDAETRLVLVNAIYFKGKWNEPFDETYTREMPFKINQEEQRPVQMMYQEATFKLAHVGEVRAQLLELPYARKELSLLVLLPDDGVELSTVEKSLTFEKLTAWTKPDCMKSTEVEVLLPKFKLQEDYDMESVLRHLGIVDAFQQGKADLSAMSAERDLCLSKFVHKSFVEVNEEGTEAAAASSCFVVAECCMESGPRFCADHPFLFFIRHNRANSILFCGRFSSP
Description: Surface plasmon resonance (SPR) measures change in refractive index on a biosensor surface, as analytic mass accumulates via binding to an attached ligand. This allows derivation of affinity (KD) from measured kinetic rates of association (ka) and dissociation (kd). All assays were run at 25° C. on a BiOptix 404pi. An NTA biosensor chip was used in this study to pre-concentrate 3 μM MBP-Sb9 via an N-terminal His-tag. MBP-Sb9 was covalently immobilized with EDC/NHS in 20 mM HEPES pH 8.0, 150 mM NaCl, 0.05% Tween-20, 5 mM β-ME to 10,000 to 15,000 RUs. MBP was similarly immobilized on a separate channel as a negative control. Compounds were injected as 3-fold serial dilutions in duplicate starting at 200 μM. Injections were done at 50 μL/min for 60 seconds, followed by a 120 second dissociation in 20 mM HEPES, pH 8.0, 150 mM NaCl, 0.05% Tween-20, 5 mM j-ME, 1% DMSO. A series of five DMSO standards between 0.5% and 1.5% were included with each run to correct for bulk refractive index. Sensorgrams were analyzed using Scrubber 2 software with a double reference and fit to a 1:1 Langmuir model to determine the interaction parameters KD, ka, and kd.

[3] = biological target: MBP (Escherichia coli, UniProt P0AEX9); assay: SPR negative control channel; type: binding
Description: FIG. 4B. Sensorgrams of compounds 3,4-dihydroxybenzoic acid (top), 3-oxo-1-indancarboxylic acid (middle), and the compound of Formula (III) (bottom) show the binding of 3,4-dihydroxybenzoic acid and the compound of Formula (III) to Sb9 (top), but not to MBP (bottom) by Surface Plasmon Resonance (SPR).
All assays were run at 25° C. on a BiOptix 404pi. An NTA biosensor chip was used in this study to pre-concentrate 3 μM MBP-Sb9 via an N-terminal His-tag. MBP-Sb9 was covalently immobilized with EDC/NHS in 20 mM HEPES pH 8.0, 150 mM NaCl, 0.05% Tween-20, 5 mM β-ME to 10,000 to 15,000 RUs. MBP was similarly immobilized on a separate channel as a negative control.

[4] = biological target: T2, SERPINB9 (Homo sapiens, UniProt P50453); assay: Ligand-detected NMR (DLB, STD, CPMG-R2); type: binding
T2 construct: A construct of human SERPINB9 covering residues 2-376 in the pFastBacl vector; made in house; host or cells: insect Tni (Trichoplusia ni) cells, baculovirus
T2 sequence (P50453 2-376): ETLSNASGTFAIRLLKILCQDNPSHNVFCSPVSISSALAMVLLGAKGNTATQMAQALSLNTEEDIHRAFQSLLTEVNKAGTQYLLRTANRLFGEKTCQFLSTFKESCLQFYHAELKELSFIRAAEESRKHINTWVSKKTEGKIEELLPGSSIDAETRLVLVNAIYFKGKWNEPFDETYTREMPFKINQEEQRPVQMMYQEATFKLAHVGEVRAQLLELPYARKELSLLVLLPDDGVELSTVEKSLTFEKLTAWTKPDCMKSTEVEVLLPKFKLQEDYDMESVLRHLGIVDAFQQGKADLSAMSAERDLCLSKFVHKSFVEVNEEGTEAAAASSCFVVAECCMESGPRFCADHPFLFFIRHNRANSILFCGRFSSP
From the text: Ligand-focused NMR. To test the binding of Compound 27 and Compound 225 to SERPINB9, we used three ligand-detected nuclear magnetic resonance (NMR) methods: differential line broadening (DLB), saturation transfer difference (STD), and Carr-Purcell-Meiboom-Gill-transverse relaxation rate (CPMG-R2). […] Second, on-resonance saturation of SERPINB9 decreased the intensity of compound peaks in the STD experiment, indicating transmission of magnetization energy from SERPINB9 to proximal ligands. Finally, as ligands engaging the target protein relax faster (compared to free small molecules that have slow transverse relaxation rates in CPMG-R2 experiments), we saw a decreased relaxation time in the presence of a protein directly indicating binding of the ligand to that protein.

[5] = biological target: T2, SERPINB9; assay: Isothermal titration calorimetry (ITC); type: binding; conditions: 20 μM SERPINB9 titrated with 200 μM compound, single site model
Description: In an attempt to produce a soluble variant of Sb9, a construct was designed in which a maltose-binding protein (MBP) was added at the N-terminus (FIG. 4B). Sb9 was soluble in multiple growth media conditions using this strategy. The condition (1 mM IPTG, 37° C., 3 h) for best expression was selected for biomass production with 5 L culture. The cells were lysed and clarified by centrifugation. The fusion protein was then captured by Ni-NTA affinity purification, such that it was eluted using high concentration imidazole. Then, the resulting protein was further purified by anionic exchange chromatography using a MonoQ column and a NaCl gradient for elution. An amount of 31.4 mg protein was obtained. The purified Sb9 protein was characterized by SDS-PAGE and MALDI-TOF mass spectrometry (MS). A construct of human SERPINB9 covering residues 2-376 in the pFastBacl vector (Invitrogen) was overexpressed in insect Tni (Trichoplusia ni.) cells adapted for suspension culture in ESF921 medium (Expression systems). Cells were grown at 27° C. to a density of ˜2 million cells per mL, infected with baculovirus containing SERPINB9 construct, collected by centrifugation around 60 hrs post-infection, and stored at −80° C. […]

[6] = test system: B16-WT and B16-Sb9 KO cells; assay: IL2-induced GrB expression and apoptosis by flow cytometry; type: cell-based, mouse; conditions: 10 μM; IL2 70 ng/mL, 48 h
From the text: FIG. 1H. […] Data are expressed as means±SD from three independent experiments. ***P<0.001 (Student's t-test).
FIGS. 1J-1K. […] Cells treated with PBS alone were used as a negative control. Data are expressed as means±SD from three independent experiments. *P<0.05, ***P<0.001 (Student's t-test).

binding to SERPINB9 by ligand-detected NMR [4]	Kd [5] [µM]	SMILES	Tm1 shift [1]	further results
		O=C(O)c1ccc(O)c(O)c1 [3,4-dihydroxybenzoic acid, reference compound]	dose-dependent Tm1 shift	Kd [2]: 88 µM; binding to MBP (negative control) [3]: not to MBP
		O=C1CC(C(=O)O)c2ccccc21 (stereo not drawn) [3-oxo-1-indancarboxylic acid]	dose-dependent Tm1 shift	
SERPINB9 binders	21.5	CCN(C)C(=O)c1ccc2nc(-c3ccccc3)oc2c1 [Compound 27, N-ethyl-N-methyl-2-phenyl-1,3-benzoxazole-6-carboxamide]		
SERPINB9 binders	28.8	CCOc1ccc(C(=O)NCc2ccccc2)cc1O [Compound 227, N-benzyl-4-ethoxy-3-hydroxybenzamide]		
		C[C@H](NC(=O)OCc1ccccc1)C(=O)N[C@@H](C)C(=O)N[C@@H](CC(=O)O)C(=O)CCl [GrB inhibitor (368050)] (Cbz-Ala-Ala-Asp-CH2Cl)		apoptosis of IL2-treated cells [6]: suppresses apoptosis
